Holding throughout (experiment): NCI anticancer screen, dose series, 48 h
Assay [1] has as its system CCRF-CEM leukemia.
Assay [2] relates to SF-295 CNS.
The test system of assay [3] is COLO 205 colon.
For assay [4], the system named is EKVX NSCLC.
In assay [5] the test system is SK-MEL-5 melanoma.
Assay [6] has as its system HT29 colon.
Assay [7] relates to OVCAR-8 ovarian.
The test system of assay [8] is NCI-H226 lung.
The test system of assay [9] is BT-549 breast.
For assay [10], the system named is DU-145 prostate.

Several values for one entry are separate records, joined by “and”; a condition that tells them apart may be missing. Identical values can stand only once.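 Values below derive from 48-hour exposures of cells grown in 96-well plates, with endpoints linearly interpolated between the two concentrations bracketing the appropriate inhibition level. The concentration for 50% growth inhibition is given as GI50. At the TGI there is no net growth.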

As to `O=C(/C=C/c1ccccc1O)c1ccccc1Cl`, the TGI in assay [1] is 88.5 µM; in assay [2], above 100 µM; in assay [3], above 100 µM; in [4], above 100 µM; in assay [5], above 100 µM; in [6], above 100 µM. The TGI in assay [7] and in assay [8] was above 100 µM each time.

For the molecule `CC(=O)Oc1cc2cnc3c4cc(OC(C)=O)c(OC(C)=O)cc4ccc3c2cc1OC(C)=O`, the GI50 in assay [1] was 0.608 µM; in assay [2], 3.36 µM; in assay [3] it was 4.3 µM; in assay [9], 1.35 µM; in [10], 2.61 µM; in [6] it was 4.18 µM. Also, the GI50 in assay [7] was 1.97 µM; in [8], 2.04 µM. The TGI in assay [1] is above 100 µM; in assay [2], above 100 µM; in assay [3], above 100 µM; in assay [9] it was 8.4 µM; in assay [10], above 100 µM; in assay [6], above 100 µM. Also, the TGI in assay [7] amounted to 31.2 µM; in assay [8], 8.91 µM.

In the case of `CC1(C)OC(=O)C(=C2CCC(C(=O)Nc3cccc(C(F)(F)F)c3)N2)C(=O)O1` (stereo unspecified), the TGI in assay [1], in assay [2], in assay [3], in assay [4], in assay [5] and in [6] was above 100 µM in each case. Moreover, the TGI in [7] and in [8] was above 100 µM each time.

As for `COc1cc2c(c(OC)c1OC)C(=O)NCCC2`, the TGI in assay [1], in assay [2], in assay [3], in assay [4], in [5] and in [6] was above 100 µM throughout. The TGI in assay [7] and in assay [8] was above 100 µM in each case.

As for `OCC(O)C(O)C(O)c1nn(-c2ccc(F)cc2)c2nc3cc(Cl)c(Cl)cc3nc12` (stereo unspecified), the TGI in [1] was 40 µM; in [2], above 100 µM; in [3] it was above 100 µM; in [4] it was 49.2 µM; in [6] it was above 100 µM; in assay [7], 23 µM. Also, in [8], the TGI was 49.4 µM.

Take `Cc1ccc(S(=O)C(C)C(Cl)c2ccccc2)cc1` (stereo unspecified): the TGI in [1], in assay [2], in assay [3], in assay [5], in [6] and in assay [7] was above 100 µM throughout. In assay [8], this molecule yielded a TGI above 100 µM.

For the molecule `N#Cc1cc(S(=O)(=O)Nc2nc3cc(Cl)ccc3o2)c(SCc2ccccc2)cc1Cl`, the GI50 was 14.1 µM in assay [1]; 14.5 µM in assay [2]; 13 µM in assay [3]; 13.4 µM in assay [9]; 15.1 µM in assay [5]; 17.3 µM in assay [6]. The GI50 in assay [7] was 14.2 µM; in assay [8] it was 17.8 µM. Also, the TGI in assay [1] turned out to be 27.1 µM; in assay [2] it was 28 µM; in [3] it was 25.7 µM; in assay [9], 26.2 µM; in assay [5], 28.3 µM; in assay [6] it was 31 µM. For the same molecule, the values for the TGI in assay [7] and in assay [8] were 27.3 µM and 43.4 µM, respectively.

For the molecule `COc1ccc(-c2cc(/C=C/C(=O)c3ccc(N)cc3)[nH]n2)cc1`, the GI50 in assay [1] is 1.32 µM; in [2], 3.09 µM; in assay [3], 1.85 µM; in assay [9], 1.74 µM; in [10], 1.32 µM; in assay [5] it was 2.71 µM. Besides, the GI50 in [6] was 2.75 µM; in [7], 2.44 µM; in assay [8] it was 2.05 µM. For the same molecule, the TGI turned out to be 4.91 µM in [1]; 13.1 µM in assay [2]; 3.45 µM in assay [3]; 4.78 µM in assay [9]; 3.46 µM in [10]; 9.25 µM in assay [5]. Moreover, the values for the TGI in assay [6], in assay [7] and in assay [8] were 8.11 µM, 15.4 µM and 5.57 µM, respectively.

For `COc1ccc(Br)c(C(=O)N2CCc3ccccc32)c1N`, the TGI in assay [1], in assay [2], in assay [3], in [5], in assay [6] and in [7] was above 100 µM in each case. For the same molecule, in assay [8], the TGI was above 100 µM.

For `COc1ccc(C2=Nn3c(nnc3-n3nc(C)cc3C)SC2)cc1`, the GI50 in [1] was 0.038 µM; in assay [3], 0.046 µM; in assay [9] it was 0.192 µM; in [10] it was 0.04 µM; in [5], 0.0489 µM; in assay [6], 0.0401 µM. Besides, the GI50 in [7] was 0.0691 µM. The TGI was above 100 µM in assay [1]; 0.218 µM in assay [3]; above 100 µM in assay [9]; 1.25 µM in assay [10]; 4.23 µM in assay [5]; above 100 µM in assay [7]. The molecule also displayed a TGI in [8] above 100 µM.

With `O=C(O)CSc1n[nH]c(-c2ccco2)n1`, the TGI in [1], in [2], in assay [3], in assay [4], in assay [5] and in assay [6] was above 100 µM in each case. The TGI in assay [7] and in assay [8] was above 100 µM in each case.

For the molecule `N#CCc1cccc(CC#N)c1Br`, the TGI in assay [1], in assay [2], in assay [3], in assay [4], in assay [6] and in assay [7] was above 100 µM throughout. For the same molecule, the TGI in assay [8] was above 100 µM.

Consider `COc1cccc(-c2nc3sccn3c2-c2ccnc(NCCCNS(=O)(=O)c3ccccc3)c2)c1`, for which the GI50 in [1] was 2.73 µM; in assay [2], 3.18 µM; in [3] it was 3.01 µM; in [10] it was 3.14 µM; in [4] it was 3.68 µM; in assay [5] it was 1.88 µM. Further, the results for the GI50 in [6], in assay [7] and in assay [8] were 3.23 µM, 2.99 µM and 2.92 µM, respectively. Also, the TGI in assay [1] was above 100 µM; in assay [2], 20.8 µM; in [3], above 100 µM; in assay [10], above 100 µM; in assay [4] it was above 100 µM; in assay [5], 3.77 µM. The TGI in assay [6], in assay [7] and in assay [8] was above 100 µM each time.

In the case of `O=C(O)c1ccccc1NCn1c(=S)sc2ccccc21`, the TGI is 52.2 µM in [1]; above 100 µM in assay [2]; 56.7 µM in assay [3]; above 100 µM in assay [9]; above 100 µM in assay [10]; above 100 µM in assay [4]. Moreover, the TGI in [6] and in assay [7] was above 100 µM throughout.

Take `CCCCCCCCCCCCCCCC[n+]1ccccc1`: the GI50 in [1] is 0.281 µM; in [2], 0.311 µM; in [3] it was 0.255 µM and 0.495 µM; in [10] it was 0.717 µM and 0.938 µM; in [4], 0.453 µM; in assay [6], 0.199 µM and 0.25 µM. Besides, in [7], the GI50 is 0.331 µM and 0.704 µM. The TGI is 1.33 µM in assay [1]; 1.42 µM in assay [2]; 0.702 µM and 1.85 µM in [3]; 1.99 µM and 2.31 µM in assay [10]; 2.09 µM in assay [4]; 0.765 µM and 1.26 µM in [6]. The TGI in assay [7] was 1.28 µM and 3.07 µM.

Turning to `CCN(c1ccccc1)[C@H]1C(=O)N(c2ccc([N+](=O)[O-])cc2)[C@H]1c1ccc(OC)cc1`, the TGI in assay [1], in assay [2], in assay [3], in assay [4], in assay [5] and in [6] was above 100 µM throughout. The TGI in assay [7] and in [8] was above 100 µM in each case.

With `COc1ccc2c(c1OC)O/C(=C\c1ncc([N+](=O)[O-])n1C)C2=O`, the GI50 in [1] is 0.297 µM; in assay [2], 3.13 µM; in [3], 1.16 µM; in [9], 1.77 µM; in [10] it was 1.42 µM; in assay [5], 0.905 µM. Besides, the values for the GI50 in assay [6], in [7] and in assay [8] were 0.836 µM, 0.639 µM and 7.29 µM, respectively. Further, the TGI turned out to be 2.83 µM in assay [1]; 21.7 µM in assay [2]; 2.86 µM in [3]; 4.46 µM in [9]; 6.27 µM in assay [10]; 2.35 µM in [5]. Further, the TGI was 5.02 µM in assay [6], 3.66 µM in assay [7] and 50.8 µM in [8].

In the case of `COc1cccc(/C=N\NC(=O)C(C)SC(C)C(=O)N/N=C/c2cccc(OC)c2)c1` (stereo unspecified), the TGI in assay [1] is above 93.5 µM; in assay [2], above 88.6 µM; in assay [3], above 63.9 µM; in [4], 60.2 µM; in [5], above 100 µM; in [6], above 100 µM. Further, the TGI in assay [7] stood at 70 µM; in assay [8] it was 47.5 µM.

For `C1=CC2CCC1CN2CCC1CNc2ccccc21` (stereo unspecified), the TGI in assay [1], in assay [2], in [4], in assay [6], in assay [7] and in assay [8] was above 100 µM throughout.

With `COc1ccc(/C=N/NS(=O)(=O)c2ccccc2)cc1`, the TGI in assay [1], in [2], in assay [3], in assay [4], in assay [5] and in [6] was above 100 µM throughout. For the same molecule, the TGI in [7] and in assay [8] was above 100 µM throughout.

Take `COc1cc(OC)c2c(=O)c3cccc([N+](=O)[O-])c3n(C)c2c1`: the TGI in [1], in assay [2], in assay [3], in assay [4], in assay [5] and in assay [6] was above 100 µM each time. In [7], this molecule showed a TGI above 100 µM.

Regarding `COc1cc2c3c(n(CCCNCCCNCCCN)c(=O)c2cc1OC)-c1cc2c(cc1C3=O)OCO2`, the GI50 in [1] was 35.1 µM; in [2], 40.6 µM; in assay [3], 46.1 µM; in assay [10] it was above 100 µM; in assay [4] it was above 100 µM; in assay [5], above 100 µM. The GI50 was 48.6 µM in assay [6], above 100 µM in assay [7] and above 100 µM in assay [8]. For the same molecule, the TGI in [1], in [2], in [3], in assay [10], in assay [4] and in assay [5] was above 100 µM each time. Also, the TGI in [6], in assay [7] and in assay [8] was above 100 µM throughout.

With `COCC(C(=O)OC1C/C=C/C=C/C(=O)OC(C(C)C(O)C(C)CCC(OC(=O)C(C)N(C)C)C(C)C(OC(C)=O)C(C)/C=C/N(C)C=O)C/C=C/C(OC)CC(C)C/C=C(\C)C(OC)CCC(C)C(O)C1C)N(C)C` (stereo unspecified), the GI50 was below 0.0001 µM in assay [1]; below 0.0001 µM in [2]; 0.00677 µM in assay [9]; below 0.0001 µM in assay [10]; below 0.0001 µM in assay [4]; below 0.0001 µM in assay [5]. Moreover, the GI50 in assay [7] was below 0.0001 µM. For the same molecule, the TGI in assay [1] was 0.0139 µM; in assay [2] it was below 0.0001 µM; in assay [9], 0.0915 µM; in assay [10], 0.000156 µM; in assay [4] it was 0.0275 µM; in [5], 0.00144 µM.

For `CCCCC1(C(NC(=O)c2ccccc2Cl)c2ccncc2)C(=O)N(c2ccccc2)N(c2ccccc2)C1=O` (stereo unspecified), the TGI was above 100 µM in assay [1]; above 100 µM in assay [2]; 52.6 µM in assay [3]; above 100 µM in [4]; 60 µM in [5]; above 100 µM in assay [6]. For the same molecule, the TGI in assay [7] and in [8] was above 100 µM throughout.

As for `C[C@H]1CC[P+](C)(c2ccccc2)C1` (stereo partly specified), the TGI in assay [1], in [2], in assay [3], in [4], in assay [5] and in assay [6] was above 100 µM in each case. The TGI in [7] and in [8] was above 100 µM throughout.

These data come from PubChem BioAssay (NCI).
